Measurements reported in US20180057505A1, “BICYCLIC HETEROARYL COMPOUNDS USEFUL AS INHIBITORS OF THE PAR-2 SIGNALING PATHWAY” (VERTEX PHARMACEUTICALS INCORPORATED, priority 2015, published 2018).

Assays:
Format in all cases: cell-based
PAR2 (HT-29 cells) [1] = target: T1, PAR2 (HT-29 cells) (Homo sapiens, UniProt P55085); test: Ca FLIPR TETRA assay, ANTAGONIST mode, activator 8 μM SLIGKV; conditions: HT-29 cells, activator 8 μM SLIGKV; maximal antagonist concentration per Method (A: 0.1, 1 or 2 μM; B: 50 μM)
T1 construct: host or cells: HT-29
T1 sequence (P55085 26-397): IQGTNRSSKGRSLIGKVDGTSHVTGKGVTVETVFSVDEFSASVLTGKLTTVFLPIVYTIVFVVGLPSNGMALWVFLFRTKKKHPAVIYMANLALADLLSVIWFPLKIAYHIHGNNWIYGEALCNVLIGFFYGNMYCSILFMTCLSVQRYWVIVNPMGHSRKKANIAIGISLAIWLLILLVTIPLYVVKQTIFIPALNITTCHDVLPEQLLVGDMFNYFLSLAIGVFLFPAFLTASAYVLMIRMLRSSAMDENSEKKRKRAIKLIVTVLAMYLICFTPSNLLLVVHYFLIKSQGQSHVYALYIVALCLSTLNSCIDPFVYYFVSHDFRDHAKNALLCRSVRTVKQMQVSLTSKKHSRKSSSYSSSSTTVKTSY
Procedure, shortened: (§1)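 Compounds are added to calcium 5-loaded HT-29 cells, read once for intrinsic Ca2+ activation, then incubated 30 min at room temperature. The same wells are then stimulated with a fixed final activator level and the Ca2+ response recorded on FLIPR Tetra.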

PAR2 (HT-29 cells) [2] = target: T1, PAR2 (HT-29 cells); test: Ca FLIPR TETRA assay, ANTAGONIST mode, activator 3.1 U/mL trypsin; conditions: HT-29 cells, activator 3.1 U/mL trypsin; maximal antagonist concentration per Method (A: 0.1, 1 or 2 μM; B: 50 μM)
Procedure, shortened: as §1

[3] = test system: Thrombin-stimulated Ca2+ response in HT-29 cells; test: Ca FLIPR TETRA assay, ANTAGONIST mode, activator 1 U/mL Thrombin; conditions: HT-29 cells, activator 1 U/mL Thrombin
Procedure, shortened: as §1

[4] = test system: UTP-stimulated Ca2+ response in HT-29 cells; test: Ca FLIPR TETRA assay, ANTAGONIST mode, activator 0.6 μM UTP; conditions: HT-29 cells, activator 0.6 μM UTP
Procedure, shortened: as §1

Row | SMILES | IC50 (PAR2 (HT-29 cells) [1]) | IC50 (PAR2 (HT-29 cells) [2]) | IC50 ([3]; Homo sapiens) | IC50 ([4]; Homo sapiens) | IC50 [3] | IC50 [4]
1 | Cc1nnc(C(=O)N2CCN(C(=O)c3cc4nc(-c5ccc(C(F)(F)F)cc5)cc(C(C)(C)C)c4o3)C(C)(C)C2)[nH]1 [Example I-174] | 1.9 nM | 3.2 nM | > 1000 nM | > 1000 nM |  | 
2 | Cc1nnc(C(=O)N2CCN(C(=O)c3cc4nc(-c5ccc(C(F)(F)F)cc5)cc(C(C)(C)C)c4o3)C(C)(C)C2)o1 [Example I-175] | 16 nM | 16 nM | > 1000 nM | > 1000 nM |  | 
3 | Cc1cc(C(=O)N2CCN(C(=O)c3cc4nc(-c5ccc(Cl)cc5)cc(C(C)(C)C)c4o3)C(C)(C)C2)[nH]n1 [Example I-177] | 1.4 nM | 2 nM | > 1000 nM | > 1000 nM |  | 
4 | Cc1nnc(C(=O)N2CCN(C(=O)c3cc4nc(-c5ccc(Cl)cc5)cc(C(C)(C)C)c4o3)C(C)(C)C2)[nH]1 [Example I-178] | 0.7 nM | 1 nM | > 1000 nM | > 1000 nM |  | 
5 | Cc1nnc(C(=O)N2CCN(C(=O)c3cc4nc(-c5ccc(Cl)cc5)cc(C(C)(C)C)c4o3)C(C)(C)C2)o1 [Example I-179] | 2.8 nM | 5.5 nM | > 1000 nM | > 1000 nM |  | 
6 | Cc1ncc(C(=O)N2CCN(C(=O)c3cc4nc(-c5ccc(Cl)cc5)cc(C(C)(C)C)c4o3)C(C)(C)C2)[nH]1 [Example I-180] | 1.1 nM | 2.3 nM | > 1000 nM | > 1000 nM |  | 
7 | CC(C)(C)c1cc(-c2ccc(Cl)c(F)c2)nc2cc(C(=O)N3CCN(C(=O)c4ncn[nH]4)CC3(C)C)oc12 [Example I-181] | 0.9 nM | 1.6 nM | > 1000 nM | > 1000 nM |  | 
8 | CC(C)(C)c1cc(-c2ccc(F)cc2)nc2cc(C(=O)N3CCN(c4cn[nH]c4)C(=O)C3(C)C)oc12 [Example I-182] | 1.1 nM | 5.8 nM | > 1000 nM | > 1000 nM |  | 
9 | CC(C)(C)c1cc(-c2ccc(F)cc2)nc2cc(C(=O)N3CCN(S(=O)(=O)c4c[nH]cn4)CC3(C)C)oc12 [Example I-201] | 4 nM | 7 nM | > 1000 nM | > 1000 nM |  | 
10 | CCC(C)c1cc(-c2ccc(F)cc2)nc2cc(C(=O)N3CCNC(=O)C3(C)C)oc12 (centres unmarked) [Example I-202] | 5 nM | 5 nM | > 1000 nM | > 1000 nM |  | 
11 | CC1(C)C(=O)NCCN1C(=O)c1cc2nc(-c3ccc(F)cc3)cc(C3CCCC3)c2o1 [Example I-203] | 5 nM | 10 nM | > 1000 nM | > 1000 nM |  | 
12 | CC1(O)CC(C(=O)C2CCN(C(=O)c3cc4nc(-c5ccc(F)cc5)cc(C5(C#N)CC(F)(F)C5)c4o3)C(C)(C)C2)C1 (centres unmarked) [Example I-204] | 6 nM | 4 nM |  |  | > 1000 nM | > 1000 nM
13 | CC1(C)CN(C(=O)C2CC(O)(C(F)(F)F)C2)CCN1C(=O)c1cc2nc(-c3ccc(F)cc3)cc(C3(C#N)CC(F)(F)C3)c2o1 (centres unmarked) [Example I-205] | 0.6 nM | 1 nM | > 1000 nM | > 1000 nM |  | 
14 | COCCN1CCN(C(=O)c2cc3nc(-c4ccc(F)cc4)cc(C(C)(C)C)c3o2)C(C)(C)C1=O [Example I-210] | 2 nM | 3 nM | > 1500 nM | > 1500 nM |  | 
15 | CC1(C)C(=O)NCCN1C(=O)c1cc2nc(-c3ccc(F)cc3)cc(C3CCCCC3)c2o1 [Example I-211] | 7 nM | 17 nM | > 2000 nM | > 2000 nM |  | 
16 | CC1(C)C(=O)NCCN1C(=O)c1cc2nc(-c3ccc(F)cc3)cc(C3CCC(F)(F)CC3)c2o1 [Example I-212] | 13 nM | 43 nM | > 2000 nM | > 2000 nM |  | 
17 | CC(C)(C)c1cc(C2CCCCCC2)nc2cc(C(=O)N3CCNC(=O)C3(C)C)oc12 [Example I-214] | 27 nM | 26 nM | > 1000 nM | > 1000 nM |  | 

The remaining lines, values ahead:

Row | IC50 (PAR2 (HT-29 cells) [1]) | IC50 (PAR2 (HT-29 cells) [2]) | IC50 ([3]; Homo sapiens) | IC50 ([4]; Homo sapiens) | IC50 [3] | IC50 [4] | SMILES
18 | 2.6 nM | 9.1 nM | > 1000 nM | > 1000 nM |  |  | Cc1nnc(C(=O)N2CCN(C(=O)c3cc4nc(-c5ccc(F)cc5)cc(C(C)(C)C)c4o3)C(C)(C)C2)o1 [Example I-183]
19 | 5.7 nM | 12 nM | > 1000 nM | > 1000 nM |  |  | CC(C)(C)c1cc(-c2ccc(F)cc2)nc2cc(C(=O)N3CCN(C(=O)c4ncccn4)CC3(C)C)oc12 [Example I-184]
20 | 1.2 nM | 5.1 nM | > 1000 nM | > 1000 nM |  |  | CC(C)(C)c1cc(-c2ccc(F)cc2)nc2cc(C(=O)N3CCN(C(=O)c4ccccn4)CC3(C)C)oc12 [Example I-185]
21 | 0.7 nM | 1 nM | > 1000 nM | > 1000 nM |  |  | Cc1cc(C(=O)N2CCN(C(=O)c3cc4nc(-c5ccc(F)cc5)cc(C(C)(C)C)c4o3)C(C)(C)C2)no1 [Example I-186]
22 | 10 nM | 20 nM | > 1000 nM | > 1000 nM |  |  | CC(C)(C)c1cc(-c2ccc(F)cc2)nc2cc(C(=O)N3CCN(C(=O)c4n[nH]c(=O)[nH]4)CC3(C)C)oc12 [Example I-187]
23 | 3 nM | 6 nM | > 1000 nM | > 1000 nM |  |  | COC(=O)C1CC(C(=O)N2CCN(C(=O)c3cc4nc(-c5ccc(F)cc5)cc(C(C)(C)C)c4o3)C(C)(C)C2)C1 (centres unmarked) [Example I-188]
24 | 17 nM | 28 nM | > 1000 nM | > 1000 nM |  |  | CC(C)(C)c1cc(-c2ccc(F)cc2)nc2cc(C(=O)N3CCN(C(=O)C4CC(C(=O)O)C4)CC3(C)C)oc12 (centres unmarked) [Example I-189]
25 | 11 nM | 13 nM | 520 nM | 760 nM |  |  | COC(=O)C12CC(C(=O)N3CCN(C(=O)c4cc5nc(-c6ccc(F)cc6)cc(C(C)(C)C)c5o4)C(C)(C)C3)(C1)C2 [Example I-190]
26 | 403 nM | 713 nM | > 1000 nM | > 1000 nM |  |  | CC(C)(C)c1cc(-c2ccc(F)cc2)nc2cc(C(=O)N3CCN(C(=O)C45CC(C(=O)O)(C4)C5)CC3(C)C)oc12 [Example I-191]
27 | 14 nM | 13 nM | > 1000 nM | > 1000 nM |  |  | CC(C)(C)c1cc(-c2ccc(F)cc2)nc2cc(C(=O)N3CCN(C(=O)c4ccc(C(=O)O)cc4)CC3(C)C)oc12 [Example I-192]
28 | 260 nM | 190 nM | > 1000 nM | > 1000 nM |  |  | CC(C)(C)c1cc(-c2ccc(F)cc2)nc2cc(C(=O)N3CCN(C(=O)C4(C(=O)O)CC4)CC3(C)C)oc12 [Example I-193]
29 | 9 nM | 22 nM | > 1000 nM | > 1000 nM |  |  | CC(C)(C)c1cc(-c2ccc(F)cc2)nc2cc(C(=O)N3CCN(C(=O)CCC(=O)O)CC3(C)C)oc12 [Example I-194]
30 | 96 nM | 233 nM | > 1000 nM | > 1000 nM |  |  | CC(C)(C(=O)O)C(=O)N1CCN(C(=O)c2cc3nc(-c4ccc(F)cc4)cc(C(C)(C)C)c3o2)C(C)(C)C1 [Example I-195]
31 | 0.7 nM | 1 nM | > 1000 nM | > 1000 nM |  |  | CC(C)(CC(=O)N1CCN(C(=O)c2cc3nc(-c4ccc(F)cc4)cc(C(C)(C)C)c3o2)C(C)(C)C1)C(=O)O [Example I-196]
32 | 48 nM | 76 nM | > 1000 nM | > 1000 nM |  |  | CC(C)(C)c1cc(-c2ccc(F)cc2)nc2cc(C(=O)N3CCN(C(=O)[C@H]4C[C@@H]4C(=O)O)CC3(C)C)oc12 [Example I-197]
33 | 0.1 nM | 0.8 nM | > 1000 nM | > 1000 nM |  |  | CC1(C(=O)O)CCC(C(=O)N2CCN(C(=O)c3cc4nc(-c5ccc(F)cc5)cc(C(C)(C)C)c4o3)C(C)(C)C2)CC1 (centres unmarked) [Example I-198]
34 | 17 nM | 27 nM | > 1000 nM | > 1000 nM |  |  | CC(C)(C)c1cc(-c2ccc(F)cc2)nc2cc(C(=O)N3CCN(C(=O)C4(C(N)=O)CC4)CC3(C)C)oc12 [Example I-199]
35 | 3 nM | 6 nM | > 1000 nM | > 1000 nM |  |  | CC(C)(C)c1cc(-c2ccc(F)cc2)nc2cc(C(=O)N3CCN(S(=O)(=O)C4CC4)CC3(C)C)oc12 [Example I-200]
36 | 4 nM | 4 nM | > 1000 nM | > 1000 nM |  |  | CN1CCN(C(=O)c2cc3nc(-c4ccc(F)cc4)cc(C(C)(C)C)c3o2)C(C)(C)C1=O [Example I-206]
37 | 220 nM | 370 nM | > 1000 nM | > 1000 nM |  |  | CC(C)(C)c1cc(-c2ccc(F)cc2)nc2cc(C(=O)N3CCN(CC(=O)O)C(=O)C3(C)C)oc12 [Example I-209]
38 | 8 nM | 53 nM | > 2000 nM | > 2000 nM |  |  | CC(C)(C)c1cc(-c2ccc(F)cc2)nc2cc(C(=O)N3CCN(C(=O)CCS(C)(=O)=O)CC3(C)C)oc12 [Example I-213]
